In patent US5484934A, “Isothiazole derivatives, a process for production thereof and uses thereof” (Nihon Nohyaku Co., Ltd., priority 1992, dated 1996):

Tests used:
Alternaria mali = assay: Inhibition of hypha growth on malt extract agar, Alternaria mali; conditions: read-out: Controlling effect (growth inhibition rate) ALM
Experimental: (§1) Each preparation to be tested was added to malt extract agar medium to adjust the concentration to 50 ppm, and the resulting mixture was dispensed into Petri dishes. As an inoculum, a prepared mycerial tuft of each test fungus was punched out together with agar by means of a 4-mm-diameter cork borer and inoculated on medium. The incubation temperature was adjusted to 28±2° .C (or 18±2° C. in the case of Selupula lacrymas).
(§2) The diameter of mycerial tuft was measured 2 to 10 days after the inoculation, and the inhibition rate of hypha growth (the following equation) was measured.
(§3) The controlling effect was evaluated according to the following criterion.

Tyromyces palustris = assay: Inhibition of hypha growth on malt extract agar, Tyromyces palustris; conditions: read-out: Controlling effect (growth inhibition rate) TYP
Experimental: as §1, §2

Chaetomium globosum = assay: Inhibition of hypha growth on malt extract agar, Chaetomium globosum; conditions: read-out: Controlling effect (growth inhibition rate) CHG
Experimental: as §1, §2, §3

Aspergillus niger = assay: Inhibition of hypha growth on malt extract agar, Aspergillus niger; conditions: read-out: Controlling effect (growth inhibition rate) ASN
Experimental: as §1, §2, §3

[1] = system: Cladosporium cladosporioides; assay: Inhibition of hypha growth on malt extract agar, Cladosporium cladosporioides; conditions: read-out: Controlling effect (growth inhibition rate) CLC
Experimental: as §1, §2

Trichoderma viride = assay: Inhibition of hypha growth on malt extract agar, Trichoderma viride; conditions: read-out: Controlling effect (growth inhibition rate) TRV
Experimental: as §1, §2

Serpula lacrymans = assay: Inhibition of hypha growth on malt extract agar, Serpula lacrymans; conditions: read-out: Controlling effect (growth inhibition rate) SEL
Experimental: as §1, §2

Rhizopus nigricans = assay: Inhibition of hypha growth on malt extract agar, Rhizopus nigricans; conditions: Rhizopus stolonifer, read-out: Controlling effect (growth inhibition rate) RHS
Experimental: as §1, §2

Fusarium oxysporum = assay: Inhibition of hypha growth on malt extract agar, Fusarium oxysporum; conditions: read-out: Controlling effect (growth inhibition rate) FUO
Experimental: as §1, §2, §3

Coriolus versicolor = assay: Inhibition of hypha growth on malt extract agar, Coriolus versicolor; type: cell-based; conditions: Trametes versicolor, 28±2° C., 2 to 10 days, read-out: Controlling effect (growth inhibition rate) COV

Measured: inhibition at 50 ppm

Cc1ccc(S(=O)(=O)c2snc(O)c2C#N)cc1 [Compound 2]
85 to 99%: Chaetomium globosum | Trichoderma viride | Rhizopus nigricans | Coriolus versicolor
55 to 84%: all other assays above

N#Cc1c(O)nsc1S(=O)(=O)c1ccc(F)cc1 [Compound 11]
55 to 84%: Alternaria mali | Aspergillus niger | [1] | Serpula lacrymans
85 to 99%: all other assays above

C=C(C)COc1nsc([S+](C)[O-])c1C#N (stereo not drawn) [Compound 17]
85 to 99%: Coriolus versicolor
100%: all other assays above

CCOC(=O)C[S+]([O-])c1snc(OC)c1C#N (stereo not drawn) [Compound 18]
85 to 99%: Alternaria mali | Fusarium oxysporum
100%: all other assays above

CCC(C)S(=O)(=O)c1snc(OC(F)F)c1C#N (stereo not drawn) [Compound 28, 3-difluoromethoxy-4-cyano-5-s-butylsulfonylisothiazole]
85 to 99%: Chaetomium globosum | Aspergillus niger | [1]
100%: all other assays above

CC(C)(C)S(=O)(=O)c1snc(OC(F)F)c1C#N [Compound 29]
100%: Tyromyces palustris | Chaetomium globosum | Trichoderma viride | Rhizopus nigricans | Coriolus versicolor
85 to 99%: all other assays above

N#Cc1c(OC(F)F)nsc1S(=O)(=O)C1CCCC1 [Compound 30, 3-difluoromethoxy-4-cyano-5-cyclopentylsulfonylisothiazole]
85 to 99%: Alternaria mali | Aspergillus niger | [1] | Serpula lacrymans | Fusarium oxysporum
100%: all other assays above

CCCOc1nsc(S(C)(=O)=O)c1C#N [Compound 43]
85 to 99%: Alternaria mali | Chaetomium globosum | Aspergillus niger | Trichoderma viride | Fusarium oxysporum
100%: all other assays above

CC=CCOc1nsc(S(C)(=O)=O)c1C#N [Compound 57]
100%: Tyromyces palustris | [1] | Serpula lacrymans | Fusarium oxysporum | Coriolus versicolor
85 to 99%: all other assays above

CCS(=O)(=O)c1snc(OCC=CCl)c1C#N [Compound 59]
100%: all assays above

CCOCCOc1nsc(S(C)(=O)=O)c1C#N [Compound 73]
85 to 99%: Alternaria mali | Aspergillus niger | [1] | Trichoderma viride
100%: all other assays above

CC(C)S(=O)(=O)c1snc(OC[Si](C)(C)C)c1C#N [Compound 77, 3-trimethylsilylmethoxy-4-cyano-5-isopropylsulfonylisothiazole]
85 to 99%: Alternaria mali | Tyromyces palustris | Aspergillus niger | [1] | Fusarium oxysporum
100%: all other assays above

COC(=O)CS(=O)(=O)c1snc(OC)c1C#N [Compound 81]
100%: all assays above

COc1ccc(S(=O)(=O)c2snc(OC)c2C#N)cc1 [Compound 94]
100%: all assays above

COc1nsc(S(=O)(=O)c2ccc(F)cc2)c1C#N [Compound 96]
100%: all assays above

COc1nsc(S(=O)(=O)c2c(C)cc(C)cc2C)c1C#N [Compound 97]
85 to 99%: Aspergillus niger | [1]
100%: all other assays above

CCOc1nsc(S(=O)(=O)c2ccc(Cl)cc2)c1C#N [Compound 100]
100%: all assays above

COC(=O)COc1nsc(S(=O)(=O)c2ccccc2)c1C#N [Compound 109]
100%: all assays above
